Measured values taken from publication PMC4503722, “Novel Phenotypic Outcomes Identified for a Public Collection of Approved Drugs from a Publicly Accessible Panel of Assays” (PLoS ONE, 2015).
Read-outs that look alike come from different tables or passages of the source.

Key:
Experiment in all cases: cells
[1] = tested on: endothelial tube formation in co-cultures of ECFCs and ADSCs treated with VEGF; type: cell-based, human
[2] = tested on: nuclear β-catenin in C2C12 cells; type: cell-based
INS-1E cells = type: cell-based, rat
NCI-H716 cells = type: cell-based, Human
HeLa cells = type: cell-based; settings: read-out: CellCycle G2/M
DLD-1 = type: cell-based
SW480 = type: cell-based
HCT116 = type: cell-based
[3] = tested on: HCT116 cells treated with a GSK3β inhibitor; type: cell-based
Colo320 = type: cell-based
HT-29 = type: cell-based
RKO = type: cell-based
SNU-C1 = type: cell-based
[4] = read-out: Basal_Viability ATP DLD-1
[5] = read-out: Basal_Viability ATP SW480
[6] = read-out: Basal_Viability ATP HCT116
[7] = read-out: GSK3b inh pretreated_Viability ATP HCT116
[8] = read-out: Basal_Viability ATP Colo 320
[9] = read-out: Basal_Viability ATP HT-29
[10] = read-out: Basal_Viability ATP RKO
[11] = read-out: Basal_Viability ATP SNU-C1
[12] = Homo sapiens, HT-29, read-out: Basal_Viability ATP HT-29

## Fc1ccc(C(OCCN2CCN(CCCc3ccccc3)CC2)c2ccc(F)cc2)cc1
[1]; S2 Table; module primary assay; 20 = no response at highest concentration, 20.1 = inactive in single concentration testing; read-out: Anti-Angiogenesis
  IC50: > 10 µM
[2]; S2 Table, module primary assay, 20 / 20.1 codes per legend, read-out: Wnt Pathway
  EC50: > 10 µM
INS-1E cells; S2 Table; module primary assay; 20 / 20.1 codes per legend; read-out: Insulin Secretion
  EC50: > 10 µM
NCI-H716 cells; S2 Table; module primary assay; 20 / 20.1 codes per legend; read-out: GLP 1 Secretion
  EC50: > 10 µM
HeLa cells; S2 Table, HeLa, 20 = no response at highest concentration
  EC50: > 10 µM
DLD-1; basal, DLD-1, read-out: Basal_Viability ATP DLD-1
  IC50: 0.903 µM
SW480; basal, SW480, read-out: Basal_Viability ATP SW480
  IC50: 2.07 µM
HCT116; basal, HCT116, read-out: Basal_Viability ATP HCT116
  IC50: 4.87 µM
[3]; HCT116 pretreated with GSK3b inhibitor, read-out: GSK3b inh pretreated_Viability ATP HCT116
  IC50: 2.85 µM
Colo320; basal; Colo 320; read-out: Basal_Viability ATP Colo 320
  IC50: > 20 µM
HT-29; basal, HT-29, read-out: Basal_Viability ATP HT-29
  IC50: 1.49 µM
RKO; basal; RKO; read-out: Basal_Viability ATP RKO
  IC50: 0.113 µM
SNU-C1; basal, SNU-C1, read-out: Basal_Viability ATP SNU-C1
  IC50: 1.82 µM

## CCC(COC(=O)c1cc(OC)c(OC)c(OC)c1)(c1ccccc1)N(C)C (stereo not drawn)
[1]; read-out: Anti-Angiogenesis
  IC50: > 10 µM
[2]; read-out: Wnt Pathway
  EC50: > 10 µM
INS-1E cells; read-out: Insulin Secretion
  EC50: > 10 µM
NCI-H716 cells; read-out: GLP 1 Secretion
  EC50: > 10 µM
HeLa cells
  EC50: > 10 µM
DLD-1; [4]
  IC50: > 20 µM
SW480; [5]
  IC50: > 20 µM
HCT116; [6]
  IC50: > 20 µM
[3]; [7]
  IC50: 1.61 µM
Colo320; [8]
  IC50: > 20 µM
HT-29; [9]
  IC50: > 20 µM
RKO; [10]
  IC50: 0.142 µM
SNU-C1; [11]
  IC50: 2.45 µM

## O=Cc1ccc(O)c(O)c1O [2,3,4-Trihydroxybenzaldehyde]
[1]; Homo sapiens, read-out: Anti-Angiogenesis
  IC50: > 10 µM
[2]; Mus musculus, C2C12, read-out: Wnt Pathway
  EC50: > 10 µM
INS-1E cells; Rattus norvegicus, INS-1E, read-out: Insulin Secretion
  EC50: > 10 µM
NCI-H716 cells; Homo sapiens, NCI-H716, read-out: GLP 1 Secretion
  EC50: > 10 µM
HeLa cells; Homo sapiens, HeLa
  EC50: > 10 µM
DLD-1; Homo sapiens, DLD-1, read-out: Basal_Viability ATP DLD-1
  IC50: > 20 µM
SW480; Homo sapiens, SW480, read-out: Basal_Viability ATP SW480
  IC50: 11.3 µM
HCT116; Homo sapiens, HCT-116, read-out: Basal_Viability ATP HCT116
  IC50: > 20 µM
[3]; Homo sapiens, HCT-116, read-out: GSK3b inh pretreated_Viability ATP HCT116
  IC50: 0.141 µM
Colo320; Homo sapiens, COLO 320, read-out: Basal_Viability ATP Colo 320
  IC50: 9.08 µM
HT-29; [12]
  IC50: > 20 µM
RKO; Homo sapiens, RKO, read-out: Basal_Viability ATP RKO
  IC50: 6.23 µM
SNU-C1; Homo sapiens, SNU-C1, read-out: Basal_Viability ATP SNU-C1
  IC50: > 20 µM

## CCN1C(=CC=Cc2sc3ccccc3[n+]2CC)Sc2ccccc21 [3,3'-diethylthiacarbocyanine iodide]
[1]; read-out: Anti-Angiogenesis
  IC50: > 10 µM
[2]; read-out: Wnt Pathway
  EC50: > 10 µM
INS-1E cells; read-out: Insulin Secretion
  EC50: > 10 µM
NCI-H716 cells; read-out: GLP 1 Secretion
  EC50: > 10 µM
HeLa cells
  EC50: > 10 µM
DLD-1; [4]
  IC50: 0.0148 µM
SW480; [5]
  IC50: 0.172 µM
HCT116; [6]
  IC50: 0.00957 µM
[3]; [7]
  IC50: 0.00875 µM
Colo320; [8]
  IC50: 0.562 µM
HT-29; [9]
  IC50: 0.00838 µM
RKO; [10]
  IC50: 0.00898 µM
SNU-C1; [11]
  IC50: 0.0172 µM

## CCc1oc2ccccc2c1C(=O)c1cc(Br)c(O)c(Br)c1 [Benzbromarone]
[1]; Homo sapiens; read-out: Anti-Angiogenesis
  IC50: > 10 µM
[2]; Mus musculus, C2C12, S2 Table, module primary assay, 20 / 20.1 codes per legend, read-out: Wnt Pathway
  EC50: > 10 µM
INS-1E cells; Rattus norvegicus, INS-1E; read-out: Insulin Secretion
  EC50: > 10 µM
NCI-H716 cells; Homo sapiens, NCI-H716; read-out: GLP 1 Secretion
  EC50: > 20 µM
HeLa cells; Homo sapiens, HeLa, S2 Table, HeLa, 20 = no response at highest concentration
  EC50: > 10 µM
DLD-1; Homo sapiens, DLD-1, basal, DLD-1, read-out: Basal_Viability ATP DLD-1
  IC50: 0.268 µM
SW480; Homo sapiens, SW480, basal, SW480, read-out: Basal_Viability ATP SW480
  IC50: 1.74 µM
HCT116; Homo sapiens, HCT-116, basal, HCT116, read-out: Basal_Viability ATP HCT116
  IC50: 1.06 µM
[3]; Homo sapiens, HCT-116, HCT116 pretreated with GSK3b inhibitor, read-out: GSK3b inh pretreated_Viability ATP HCT116
  IC50: 0.0667 µM
Colo320; Homo sapiens; basal; Colo 320; read-out: Basal_Viability ATP Colo 320
  IC50: > 20 µM
HT-29; Homo sapiens, basal, HT-29, read-out: Basal_Viability ATP HT-29
  IC50: 1.14 µM
RKO; Homo sapiens; basal; RKO; read-out: Basal_Viability ATP RKO
  IC50: 0.131 µM
SNU-C1; Homo sapiens, SNU-C1, basal, SNU-C1, read-out: Basal_Viability ATP SNU-C1
  IC50: 0.105 µM

## CN(C)CCOC(c1ccccc1)c1ccc(Br)cc1 (stereo not drawn) [Bromazine]
[1]; Homo sapiens, IC50 / EC50; endothelial tube area, ADSC/ECFC co-culture; read-out: Anti-Angiogenesis
  IC50: > 10 µM
[2]; Mus musculus, C2C12, IC50 / EC50, C2C12 beta-catenin translocation, read-out: Wnt Pathway
  EC50: > 10 µM
INS-1E cells; Rattus norvegicus; IC50 / EC50; INS-1E; read-out: Insulin Secretion
  EC50: 2.77 µM
NCI-H716 cells; Homo sapiens; IC50 / EC50; NCI-H716; read-out: GLP 1 Secretion
  EC50: > 10 µM
HeLa cells; Homo sapiens, HeLa, IC50 / EC50, HeLa
  EC50: > 10 µM
DLD-1; Homo sapiens, DLD-1, basal, read-out: Basal_Viability ATP DLD-1
  IC50: > 20 µM
SW480; Homo sapiens, SW480, basal, read-out: Basal_Viability ATP SW480
  IC50: > 20 µM
HCT116; Homo sapiens, HCT-116, basal, read-out: Basal_Viability ATP HCT116
  IC50: > 20 µM
[3]; Homo sapiens, HCT-116, GSK3b inhibitor pretreated, read-out: GSK3b inh pretreated_Viability ATP HCT116
  IC50: > 20 µM
Colo320; Homo sapiens, COLO 320; read-out: Basal_Viability ATP Colo 320
  IC50: > 20 µM
HT-29; [12]
  IC50: 17 µM
RKO; Homo sapiens, RKO; read-out: Basal_Viability ATP RKO
  IC50: > 20 µM
SNU-C1; Homo sapiens, SNU-C1, basal, read-out: Basal_Viability ATP SNU-C1
  IC50: 3.1 µM
